Test results as given in US9850258B2, “Substituted tetrahydrocarbazole and carbazole carboxamide compounds” (BRISTOL-MYERS SQUIBB COMPANY, priority 2013, dated 2017).
Read-outs that look alike come from different tables or passages of the source.

Key:
[1] = target: Jak2 tyrosine kinase (Homo sapiens (Human), UniProt O60674); experiment: Jak2 Tyrosine Kinase Assay; assay type: biochemical; conditions: for IC50: Jak2 tyrosine kinase, ATP 30 μM
[2] = system: CD69 expression on B cells in human whole blood; experiment: Whole Blood Assay of BCR-Stimulated CD69 Expression on B Cells; assay type: cell-based
[3] = target: human recombinant Btk (Homo sapiens (Human), UniProt Q06187); experiment: Human Recombinant Btk Enzyme Assay; assay type: biochemical
Chain of human recombinant Btk (Q06187 whole entry): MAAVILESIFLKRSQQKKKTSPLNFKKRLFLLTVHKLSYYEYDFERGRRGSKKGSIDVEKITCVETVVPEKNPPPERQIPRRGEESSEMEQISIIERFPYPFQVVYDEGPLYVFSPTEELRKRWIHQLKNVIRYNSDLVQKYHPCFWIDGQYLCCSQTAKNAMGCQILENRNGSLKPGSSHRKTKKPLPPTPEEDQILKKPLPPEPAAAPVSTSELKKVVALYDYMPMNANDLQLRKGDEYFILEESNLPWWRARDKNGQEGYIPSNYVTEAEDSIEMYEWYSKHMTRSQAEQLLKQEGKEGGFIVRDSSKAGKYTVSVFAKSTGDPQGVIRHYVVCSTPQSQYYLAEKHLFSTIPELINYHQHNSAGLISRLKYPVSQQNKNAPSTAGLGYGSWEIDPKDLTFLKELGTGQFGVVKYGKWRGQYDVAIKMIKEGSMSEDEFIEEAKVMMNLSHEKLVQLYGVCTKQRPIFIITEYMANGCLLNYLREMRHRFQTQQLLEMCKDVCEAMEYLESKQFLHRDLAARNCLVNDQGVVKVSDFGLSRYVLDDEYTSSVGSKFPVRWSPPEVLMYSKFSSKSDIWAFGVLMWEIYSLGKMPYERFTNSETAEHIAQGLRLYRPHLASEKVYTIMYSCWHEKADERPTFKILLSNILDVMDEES

Chain of Jak2 tyrosine kinase (O60674 whole entry): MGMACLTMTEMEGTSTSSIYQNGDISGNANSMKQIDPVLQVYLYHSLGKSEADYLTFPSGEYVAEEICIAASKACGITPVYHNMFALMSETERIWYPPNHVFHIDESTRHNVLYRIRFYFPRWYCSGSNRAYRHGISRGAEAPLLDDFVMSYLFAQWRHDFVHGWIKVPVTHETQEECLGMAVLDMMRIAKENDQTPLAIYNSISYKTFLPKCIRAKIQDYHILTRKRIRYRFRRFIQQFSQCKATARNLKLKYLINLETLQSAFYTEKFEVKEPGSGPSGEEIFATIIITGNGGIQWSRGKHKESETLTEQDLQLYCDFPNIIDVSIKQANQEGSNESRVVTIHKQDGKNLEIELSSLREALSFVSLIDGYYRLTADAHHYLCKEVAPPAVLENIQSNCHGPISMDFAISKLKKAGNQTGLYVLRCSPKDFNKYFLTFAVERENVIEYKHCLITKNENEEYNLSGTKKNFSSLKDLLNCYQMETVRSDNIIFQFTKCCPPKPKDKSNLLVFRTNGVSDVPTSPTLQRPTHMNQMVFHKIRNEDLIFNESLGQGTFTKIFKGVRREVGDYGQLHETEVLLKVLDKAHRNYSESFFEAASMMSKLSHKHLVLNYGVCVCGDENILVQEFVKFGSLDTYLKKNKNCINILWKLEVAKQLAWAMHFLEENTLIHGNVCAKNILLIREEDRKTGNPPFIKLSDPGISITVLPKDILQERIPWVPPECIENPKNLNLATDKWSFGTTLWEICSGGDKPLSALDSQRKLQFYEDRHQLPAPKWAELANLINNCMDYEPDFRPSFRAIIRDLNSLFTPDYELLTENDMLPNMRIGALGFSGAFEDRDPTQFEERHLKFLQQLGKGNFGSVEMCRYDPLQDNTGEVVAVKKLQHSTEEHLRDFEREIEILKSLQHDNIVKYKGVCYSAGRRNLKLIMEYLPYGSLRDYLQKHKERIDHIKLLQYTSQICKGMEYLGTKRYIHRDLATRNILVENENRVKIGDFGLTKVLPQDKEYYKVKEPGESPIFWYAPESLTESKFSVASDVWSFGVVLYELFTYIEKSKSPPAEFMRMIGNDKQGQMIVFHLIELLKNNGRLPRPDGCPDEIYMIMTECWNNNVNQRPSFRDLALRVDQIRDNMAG

SMILES	IC50 [1] [nM]	IC50 [2] [nM]	IC50 [3] [nM]	Ratio of Jak2/Btk IC50 values ([1]; selectivity of Btk over Jak2)	Ratio of Jak2/Btk IC50 values ([1]; kinase selectivity of Btk over Jak2, larger value = more selective for Btk)	IC50 ([2]; Homo sapiens, B-cell) [nM]
Cc1c(-c2c(Cl)cc(C(N)=O)c3[nH]c4cc(C(C)(C)O)ccc4c23)cccc1-n1c(=O)c2cc(F)ccc2n(C)c1=O [Example 8, 3-Chloro-4-(R)-(3-(6-fluoro-1-methyl-2,4-dioxo-1,2-dihydroquinazolin-3(4H)-yl)-2-methylphenyl)-7-(2-hydroxypropan-2-yl)-9H-carbazole-1-carboxamide]	> 2000	–	0.65	>3100	–	–
Cn1c(=O)n(-c2cccc(-c3c(Cl)cc(C(N)=O)c4[nH]c5cc(C(C)(C)O)ccc5c34)c2Cl)c(=O)c2ccccc21 [Example 42, 3-Chloro-4-(2-chloro-3-(1-methyl-2,4-dioxo-1,2-dihydroquinazolin-3(4H)-yl)phenyl)-7-(2-hydroxypropan-2-yl)-9H-carbazole-1-carboxamide]	–	–	2	–	–	–
CC(C)(O)c1ccc2c(c1)[nH]c1c(C(N)=O)cc(Cl)c(-c3cccc(-n4c(=O)[nH]c5c(F)cccc5c4=O)c3Cl)c12 [Example 47, 3-Chloro-4-(R)-(2-chloro-3-(8-fluoro-2,4-dioxo-1,2-dihydroquinazolin-3(4H)-yl)phenyl)-7-(2-hydroxypropan-2-yl)-9H-carbazole-1-carboxamide]	1800	–	0.35	5100	–	–
Cc1c(-c2c(Cl)cc(C(N)=O)c3[nH]c4cc(C(C)(C)O)ccc4c23)cccc1-n1c(=O)c2ccccc2n(C)c1=O [Example 3, 3-Chloro-7-(2-hydroxypropan-2-yl)-4-(R)-(2-methyl-3-(1-methyl-2,4-dioxo-1,2-dihydroquinazolin-3(4H)-yl)phenyl)-9H-carbazole-1-carboxamide]	2000	–	1	2000	–	–
Cc1cc(C(N)=O)c2[nH]c3cc(C(C)(C)O)ccc3c2c1-c1cccc(-n2c(=O)c3cccc(F)c3n(C)c2=O)c1C (atropisomer, axis not shown) [Example 29, 4-(R)-(3-(S)-(8-Fluoro-1-methyl-2,4-dioxo-1,2-dihydroquinazolin-3(4H)-yl)-2-methylphenyl)-7-(2-hydroxypropan-2-yl)-3-methyl-9H-carbazole-1-carboxamide]	790	–	0.66	–	–	–
Cc1c(-c2c(Cl)cc(C(N)=O)c3[nH]c4cc(C(C)(C)O)ccc4c23)cccc1-n1c(=O)[nH]c2c(F)cc(F)cc2c1=O (racemic) [Example 10, 3-Chloro-4-(RS)-(3-(RS)-(6,8-difluoro-2,4-dioxo-1,2-dihydroquinazolin-3(4H)-yl)-2-methylphenyl)-7-(2-hydroxypropan-2-yl)-9H-carbazole-1-carboxamide]	> 2000	–	0.83	>2400	–	–
Cc1c(-c2c(Cl)cc(C(N)=O)c3[nH]c4cc(C(C)(C)O)ccc4c23)cccc1-n1c(=O)c2ccc(F)cc2n(C)c1=O [Example 9, 3-Chloro-4-(R)-(3-(7-fluoro-1-methyl-2,4-dioxo-1,2-dihydroquinazolin-3(4H)-yl)-2-methylphenyl)-7-(2-hydroxypropan-2-yl)-9H-carbazole-1-carboxamide]	> 2000	–	0.62	>3200	–	–
Cc1c(-c2c(Cl)cc(C(N)=O)c3[nH]c4cc(C(C)(C)O)ccc4c23)cccc1-n1c(=O)ccn(-c2ccc(F)cc2)c1=O [Example 23, 3-Chloro-4-(3-(3-(4-fluorophenyl)-2,6-dioxo-2,3-dihydropyrimidin-1(6H)-yl)-2-methylphenyl)-7-(2-hydroxypropan-2-yl)-9H-carbazole-1-carboxamide]	440	–	0.44	1000	–	–
Cn1c(=O)n(-c2cccc(-c3c(Cl)cc(C(N)=O)c4[nH]c5cc(C(C)(C)O)ccc5c34)c2Cl)c(=O)c2ccccc21 [Example 43, 3-Chloro-4-(R)-(2-chloro-3-(1-methyl-2,4-dioxo-1,2-dihydroquinazolin-3(4H)-yl)phenyl)-7-(2-hydroxypropan-2-yl)-9H-carbazole-1-carboxamide]	–	–	0.47	–	–	–
Cc1c(-c2c(F)cc(C(N)=O)c3[nH]c4cc(C(C)(C)O)ccc4c23)cccc1-n1c(=O)[nH]c2c(F)cc(F)cc2c1=O (single isomer, unassigned) [Example 73]	–	–	–	–	–	21
COc1cccc2c(=O)n(-c3cccc(-c4c(Cl)cc(C(N)=O)c5[nH]c6cc(C(C)(C)O)ccc6c45)c3C)c(=O)n(C)c12 [Example 7, 3-Chloro-7-(2-hydroxypropan-2-yl)-4-(R)-(3-(8-methoxy-1-methyl-2,4-dioxo-1,2-dihydroquinazolin-3(4H)-yl)-2-methylphenyl)-9H-carbazole-1-carboxamide]	1600	–	0.81	2000	–	–

The remaining lines, values ahead:

IC50 [1] [nM]	IC50 [2] [nM]	IC50 [3] [nM]	Ratio of Jak2/Btk IC50 values ([1]; selectivity of Btk over Jak2)	Ratio of Jak2/Btk IC50 values ([1]; kinase selectivity of Btk over Jak2, larger value = more selective for Btk)	IC50 ([2]; Homo sapiens, B-cell) [nM]	SMILES
2000	91	–	–	–	–	Cc1c(-c2c(F)cc(C(N)=O)c3[nH]c4cc(C(C)(C)O)ccc4c23)cccc1-n1c(=O)c2cccc(F)c2n(C)c1=O (atropisomer, axis not shown) [Example 19, 3-Fluoro-4-(R)-(3-(S)-(8-fluoro-1-methyl-2,4-dioxo-1,2-dihydroquinazolin-3(4H)-yl)-2-methylphenyl)-7-(2-hydroxypropan-2-yl)-9H-carbazole-1-carboxamide]
1800	–	0.33	5500	–	–	Cc1c(-c2c(Cl)cc(C(N)=O)c3[nH]c4cc(C(C)(C)O)ccc4c23)cccc1-n1c(=O)ccn(-c2ccc(F)cc2)c1=O [Example 24, 3-Chloro-4-(R)-(3-(3-(4-fluorophenyl)-2,6-dioxo-2,3-dihydropyrimidin-(6H)-yl)-2-methylphenyl)-7-(2-hydroxypropan-2-yl)-9H-carbazole-1-carboxamide]
–	–	4.7	–	–	–	Cn1c(=O)n(-c2cccc(-c3c(Cl)cc(C(N)=O)c4[nH]c5cc(C(C)(C)O)ccc5c34)c2Cl)c(=O)c2cccc(F)c21 [Example 44, 3-Chloro-4-(2-chloro-3-(8-fluoro-1-methyl-2,4-dioxo-1,2-dihydroquinazolin-3(4H)-yl)phenyl)-7-(2-hydroxypropan-2-yl)-9H-carbazole-1-carboxamide]
–	–	–	–	29	–	Cc1nc(C(N)=O)c2[nH]c3cc(C(C)(C)O)ccc3c2c1-c1cccc(-n2cnc3ccccc3c2=O)c1C [Comparative Example 76, 7-(2-Hydroxypropan-2-yl)-3-methyl-4-(2-methyl-3-(4-oxoquinazolin-3(4H)-yl)phenyl)-9H-pyrido[3,4-b]indole-1-carboxamide, reference compound]
1200	–	0.46	2600	–	–	Cc1c(-c2c(F)cc(C(N)=O)c3[nH]c4cc(C(C)(C)O)ccc4c23)cccc1-n1c(=O)[nH]c2c(F)cccc2c1=O [Example 20, 3-Fluoro-4-(3-(8-fluoro-2,4-dioxo-1,2-dihydroquinazolin-3(4H)-yl)-2-methylphenyl)-7-(2-hydroxypropan-2-yl)-9H-carbazole-1-carboxamide]
350	–	1.3	270	–	–	Cc1c(-c2c(Cl)cc(C(N)=O)c3[nH]c4cc(C(C)(C)O)ccc4c23)cccc1-n1c(=O)c2cccc(C)c2n(C)c1=O [Example 4, 3-Chloro-4-(R)-(3-(1,8-dimethyl-2,4-dioxo-1,2-dihydroquinazolin-3(4H)-yl)-2-methylphenyl)-7-(2-hydroxypropan-2-yl)-9H-carbazole-1-carboxamide]
170	–	–	–	–	–	Cc1c(-c2c(F)cc(C(N)=O)c3[nH]c4cc(C(C)(C)O)ccc4c23)cccc1-n1c(=O)c2cccc(F)c2n(C)c1=O [Example 17, 3-Fluoro-4-(3-(8-fluoro-1-methyl-2,4-dioxo-1,2-dihydroquinazolin-3(4H)-yl)-2-methylphenyl)-7-(2-hydroxypropan-2-yl)-9H-carbazole-1-carboxamide]
2200	–	–	–	–	–	Cc1c(-c2c(F)cc(C(N)=O)c3[nH]c4cc(C(C)(C)O)ccc4c23)cccc1-n1c(=O)c2cccc(F)c2n(C)c1=O (atropisomer, axis not shown) [Example 18, 3-Fluoro-4-(3-(S)-(8-fluoro-1-methyl-2,4-dioxo-1,2-dihydroquinazolin-3(4H)-yl)-2-methylphenyl)-7-(2-hydroxypropan-2-yl)-9H-carbazole-1-carboxamide]
